Activity calls are given as the source filed them. For most assays here, no stated cut-off is given here; in the data, actives have a measured IC50 and inactives only a lower limit.
Legend:
[1] = molecular target: T1, Kappa-type opioid receptor (Homo sapiens, UniProt P41145); test: SAR analysis of Antagonists of the Kappa Opioid Receptor (KOR) using an Image-Based Assay - Set 3. [Related pubchem assays (depositor defined):AID1777, AID1785]; assay type: functional
[2] = molecular target: Delta-type opioid receptor (Homo sapiens, UniProt P41143); test: SAR Analysis of Antagonists of the DOR Receptor using an Image-Based Assay - Set 3. [Related pubchem assays (depositor defined):AID1777, AID1785]; assay type: functional;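 further: U2OS cells expressing DOR1 and beta-arrestin GFP stimulated with 100 nM SNC80; imaging of GFP-tagged beta-arrestin moving into spots after receptor activation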
[3] = molecular target: Mu-type opioid receptor (Homo sapiens, UniProt P35372); test: SAR Analysis of Antagonists of the MOR Receptor using an Image-Based Assay - Set 3. [Related pubchem assays (depositor defined):AID1777, AID1785, AID1786, AID1966, AID2133, AID2136, AID2284, AID2285, AID2420]; assay type: functional
[4] = molecular target: T1, Kappa-type opioid receptor; test: SAR analysis of small molecule antagonists of the kappa opioid receptor via a luminescent beta-arrestin assay - Set 3. [Related pubchem assays (depositor defined):AID1777, AID1778, AID1785, AID1786, AID1966, AID2133, AID2136, AID2285, AID2495]; assay type: functional
[5] = molecular target: Nucleotide-binding oligomerization domain-containing protein 1 (Homo sapiens, UniProt Q9Y239); test: NOD1 signaling inhibitors, SAR follow-up, revised (AID 2333); assay type: functional
[6] = molecular target: Tumor necrosis factor (Homo sapiens, UniProt P01375); test: TNFa-triggered NF-kB activation inhibitors, SAR follow-up, cell-based, revised (AID 2337); assay type: functional
[7] = tested on: HEK293; test: cells; settings: Homo sapiens;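 further: cells exposed to compound for 14 hours overnight before viability readout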
[8] = molecular target: T1, Kappa-type opioid receptor; test: SAR analysis of Antagonists of the Kappa Opioid Receptor (KOR) using an Image-Based Assay - Set 4. [Related pubchem assays (depositor defined):AID1777, AID1785]; assay type: functional
[9] = molecular target: T1, Kappa-type opioid receptor; test: SAR analysis of small molecule antagonists of the kappa opioid receptor via a luminescent beta-arrestin assay - Set 4. [Related pubchem assays (depositor defined):AID1777, AID1778, AID1785, AID1786, AID1966, AID2133, AID2136, AID2285]; assay type: functional
[10] = molecular target: G-protein coupled receptor 55 (Homo sapiens, UniProt Q9Y2T6); test: GPR55 agonists via beta-arrestin recruitment, primary screen, imaging, U2OS cells, beta-arrestin-GFP redistribution (AID 1961); assay type: functional
[11] = molecular target: T2, Ubiquitin-conjugating enzyme E2 N (Homo sapiens, UniProt P61088); assay type: functional
T2 sequence (P61088 whole entry): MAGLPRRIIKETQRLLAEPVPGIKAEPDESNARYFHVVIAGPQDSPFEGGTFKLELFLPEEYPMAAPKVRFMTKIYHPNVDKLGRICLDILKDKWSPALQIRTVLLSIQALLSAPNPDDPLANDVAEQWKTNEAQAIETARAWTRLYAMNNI

[12] = molecular target: T2, Ubiquitin-conjugating enzyme E2 N; assay type: functional; remark: listed apart in the source
[13] = molecular target: T3, Bcl-2-related protein A1 (Mus musculus, UniProt Q07440); assay type: functional;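 further: confirmatory dose–response counterscreen on Bfl-1, used to check hits from a UBC13 polyubiquitin inhibitor campaign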
T3 sequence (Q07440 whole entry): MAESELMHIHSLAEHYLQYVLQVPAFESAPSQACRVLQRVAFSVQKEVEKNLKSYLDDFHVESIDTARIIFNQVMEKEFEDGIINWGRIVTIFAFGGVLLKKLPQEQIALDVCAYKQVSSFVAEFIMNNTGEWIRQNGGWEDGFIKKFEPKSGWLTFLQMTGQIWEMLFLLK

[14] = molecular target: T4, Dual specificity protein phosphatase 3 (Homo sapiens, UniProt P51452); test: VHR1 inhibitor Ki determination, SAR follow-up, biochemical, colorimetric (AID 2004)
[15] = molecular target: Voltage-dependent T-type calcium channel subunit alpha-1H (Homo sapiens, UniProt O95180); test: Cav3.2 T-type channel inhibitors, synthesized analogs, SAR follow-up, cell-based, synthetic library set 2, HEK293 HH8, Fluo-4 (AID 493023); assay type: functional
[16] = molecular target: T5, DNA dC->dU-editing enzyme APOBEC-3A (Homo sapiens, UniProt P31941); test: SAR analysis of small molecule inhibitors of APOBEC3A DNA Deaminase via a fluorescence-based single-stranded DNA deaminase assay.; assay type: functional; settings: read-out: IC50_Mean
[17] = molecular target: T6, Polyadenylate-binding protein 1 (Homo sapiens, UniProt P11940); test: PABP inhibition in translation initiation, SAR follow-up (AID 435018); assay type: functional
[18] = molecular target: T7, Eukaryotic translation initiation factor 4H (Homo sapiens, UniProt Q15056); test: human eIF4H binding inhibitors, primary screen, translation initiation inhibitor project, biochemical, uHTS, fluorescence polarization (AID 2012)
[19] = molecular target: T8, DNA dC->dU-editing enzyme APOBEC-3G (Homo sapiens, UniProt Q9HC16); test: APOBEC3G deaminase inhibitors, SAR follow-up, biochemical, fluorescence, single-stranded DNA substrate (AID 602136); assay type: functional; settings: read-out: IC50_Mean
[20] = molecular target: T8, DNA dC->dU-editing enzyme APOBEC-3G; test: SAR analysis of small molecule inhibitors of APOBEC3G DNA Deaminase via a fluorescence-based single-stranded DNA deaminase assay - Set 2.; assay type: functional; settings: read-out: IC50_Mean
[21] = molecular target: T7, Eukaryotic translation initiation factor 4H; test: eIF4H inhibition in translation initiation, SAR follow-up (AID 435011); assay type: functional
[22] = molecular target: T5, DNA dC->dU-editing enzyme APOBEC-3A; test: Dose Response confirmation of small molecule APOBEC3A DNA Deaminase Inhibitors via a fluorescence-based single-stranded DNA deaminase assay. [Related pubchem assays (depositor defined):AID493011, AID493024]; assay type: functional
[23] = molecular target: T5, DNA dC->dU-editing enzyme APOBEC-3A; test: SAR analysis of small molecule inhibitors of APOBEC3A DNA Deaminase via a fluorescence-based single-stranded DNA deaminase assay - Set 2.; assay type: functional; settings: read-out: IC50_Mean
[24] = molecular target: T8, DNA dC->dU-editing enzyme APOBEC-3G; assay type: functional
[25] = molecular target: T6, Polyadenylate-binding protein 1; test: PABP poly(A) RNA binding inhibitors, primary screen, biochemical, fluorescence polarization, uHTS (AID 2014)
[26] = molecular target: T9, Tyrosine-protein phosphatase non-receptor type 22 (Homo sapiens, UniProt Q9Y2R2); test: LYP (PTPN22) phosphatase inhibitor potency, SAR follow-up, biochemical, pCAP fluorogenic substrate, fluorescence, set 3 (AID 449727); assay type: functional
T9 sequence (Q9Y2R2 whole entry): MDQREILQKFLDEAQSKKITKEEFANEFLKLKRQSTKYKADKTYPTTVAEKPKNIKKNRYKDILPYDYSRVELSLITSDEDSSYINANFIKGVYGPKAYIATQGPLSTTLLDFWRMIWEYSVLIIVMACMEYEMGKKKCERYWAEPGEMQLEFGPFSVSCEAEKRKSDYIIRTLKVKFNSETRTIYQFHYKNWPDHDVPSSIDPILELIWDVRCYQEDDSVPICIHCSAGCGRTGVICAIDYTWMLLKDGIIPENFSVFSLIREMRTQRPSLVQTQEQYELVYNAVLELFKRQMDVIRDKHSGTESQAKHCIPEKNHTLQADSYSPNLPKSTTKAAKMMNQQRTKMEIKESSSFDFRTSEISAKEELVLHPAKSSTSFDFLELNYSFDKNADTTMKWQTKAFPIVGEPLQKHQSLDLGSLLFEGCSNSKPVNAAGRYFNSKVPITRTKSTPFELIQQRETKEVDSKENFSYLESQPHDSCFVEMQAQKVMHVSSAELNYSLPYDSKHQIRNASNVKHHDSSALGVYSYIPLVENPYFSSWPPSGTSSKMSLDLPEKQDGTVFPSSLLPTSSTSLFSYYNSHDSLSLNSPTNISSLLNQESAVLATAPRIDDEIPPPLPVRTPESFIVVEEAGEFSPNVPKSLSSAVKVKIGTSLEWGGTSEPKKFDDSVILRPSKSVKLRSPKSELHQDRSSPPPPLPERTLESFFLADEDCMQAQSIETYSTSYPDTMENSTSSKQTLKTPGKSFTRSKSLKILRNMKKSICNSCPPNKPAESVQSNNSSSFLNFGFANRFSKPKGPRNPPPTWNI

[27] = molecular target: T4, Dual specificity protein phosphatase 3; test: SAR VHR1 Fluorescent Assay for In Vitro dose response studies. [Related pubchem assays (depositor defined):AID1654, AID1661, AID1878, AID1992, AID2004, AID2070, AID2085]; assay type: functional
[28] = molecular target: T10, Tyrosine-protein phosphatase non-receptor type 7 (Homo sapiens, UniProt P35236); test: HePTP (PTPN7) phosphatase inhibitor potency, SAR follow-up, biochemical, set 2 (AID 449736); assay type: functional
T10 sequence (P35236 whole entry): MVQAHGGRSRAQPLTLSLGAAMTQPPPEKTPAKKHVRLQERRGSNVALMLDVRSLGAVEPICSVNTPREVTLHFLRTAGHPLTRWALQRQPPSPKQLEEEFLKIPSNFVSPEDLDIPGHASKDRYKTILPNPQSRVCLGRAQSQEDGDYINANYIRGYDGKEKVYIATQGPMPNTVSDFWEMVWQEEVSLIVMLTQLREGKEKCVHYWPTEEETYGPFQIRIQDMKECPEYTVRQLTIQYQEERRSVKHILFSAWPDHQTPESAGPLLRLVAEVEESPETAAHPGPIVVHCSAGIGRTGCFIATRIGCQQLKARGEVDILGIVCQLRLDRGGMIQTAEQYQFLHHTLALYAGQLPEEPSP

[29] = molecular target: T10, Tyrosine-protein phosphatase non-receptor type 7; test: redox-dependent HePTP inhibition, mechanism study, biochemical, fluorescence (AID 2068); assay type: functional
[30] = molecular target: T4, Dual specificity protein phosphatase 3; test: SAR VHR1 absorbance Assay for In Vitro dose response studies. [Related pubchem assays (depositor defined):AID1654, AID1661, AID1878, AID1992, AID2004]
[31] = molecular target: T9, Tyrosine-protein phosphatase non-receptor type 22; test: SAR LYP1 Fluorescent Assay using OMFP substrate for In Vitro dose response studies - Set 3. [Related pubchem assays (depositor defined):AID1779, AID1784, AID2140, AID2686]; assay type: functional
[32] = molecular target: Tyrosine-protein phosphatase non-receptor type 12 (Homo sapiens, UniProt Q05209); test: SAR Selectivity Analysis of small molecule inhibitors of PEST using pCAP in a fluorescence assay. [Related pubchem assays (depositor defined):AID1779, AID1784, AID2135]; assay type: functional
[33] = molecular target: T11, Dual specificity protein phosphatase 6 (Rattus norvegicus, UniProt Q64346); assay type: functional;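 further: confirmatory in vitro dose-response testing of MKP-3 inhibition; recombinant His-tagged MKP-3 made in E. coli BL21 with OMFP substrate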
T11 sequence (Q64346 whole entry): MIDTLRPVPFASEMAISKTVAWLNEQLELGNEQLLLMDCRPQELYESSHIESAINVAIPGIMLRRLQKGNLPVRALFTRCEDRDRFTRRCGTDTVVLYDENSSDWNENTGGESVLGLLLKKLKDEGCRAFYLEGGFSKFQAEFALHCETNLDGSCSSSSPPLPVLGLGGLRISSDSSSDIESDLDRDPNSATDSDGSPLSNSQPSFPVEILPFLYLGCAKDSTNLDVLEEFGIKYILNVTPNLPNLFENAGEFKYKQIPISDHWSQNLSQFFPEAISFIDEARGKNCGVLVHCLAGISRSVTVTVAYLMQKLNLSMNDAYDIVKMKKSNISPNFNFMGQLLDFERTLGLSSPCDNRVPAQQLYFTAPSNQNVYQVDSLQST

[34] = molecular target: Beta-galactosidase (Escherichia coli, UniProt Q8VNN2); test: beta-galactosidase enzyme inhibitors and activators, dose response, artefact control for CCR6 antagonist project, biochemical, E. coli enzyme, set 3 (AID 504712); assay type: functional

T5 sequence (P31941 whole entry): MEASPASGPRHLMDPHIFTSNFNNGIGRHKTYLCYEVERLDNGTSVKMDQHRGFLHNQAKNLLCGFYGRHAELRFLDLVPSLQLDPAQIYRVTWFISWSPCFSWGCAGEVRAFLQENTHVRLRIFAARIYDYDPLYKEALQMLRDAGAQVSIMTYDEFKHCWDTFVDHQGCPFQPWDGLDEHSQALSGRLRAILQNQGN
T8 sequence (Q9HC16 whole entry): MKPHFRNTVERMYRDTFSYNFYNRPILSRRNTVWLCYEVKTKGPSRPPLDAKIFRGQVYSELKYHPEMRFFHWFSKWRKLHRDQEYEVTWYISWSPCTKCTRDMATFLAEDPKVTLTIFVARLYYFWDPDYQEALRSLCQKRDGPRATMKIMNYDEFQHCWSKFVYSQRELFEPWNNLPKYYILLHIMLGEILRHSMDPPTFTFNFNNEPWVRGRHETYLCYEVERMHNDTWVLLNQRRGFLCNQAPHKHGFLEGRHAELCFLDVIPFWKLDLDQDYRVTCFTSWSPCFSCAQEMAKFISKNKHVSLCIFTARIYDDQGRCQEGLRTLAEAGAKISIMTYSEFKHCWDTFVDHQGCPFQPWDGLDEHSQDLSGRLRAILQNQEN
T1 sequence (P41145 whole entry): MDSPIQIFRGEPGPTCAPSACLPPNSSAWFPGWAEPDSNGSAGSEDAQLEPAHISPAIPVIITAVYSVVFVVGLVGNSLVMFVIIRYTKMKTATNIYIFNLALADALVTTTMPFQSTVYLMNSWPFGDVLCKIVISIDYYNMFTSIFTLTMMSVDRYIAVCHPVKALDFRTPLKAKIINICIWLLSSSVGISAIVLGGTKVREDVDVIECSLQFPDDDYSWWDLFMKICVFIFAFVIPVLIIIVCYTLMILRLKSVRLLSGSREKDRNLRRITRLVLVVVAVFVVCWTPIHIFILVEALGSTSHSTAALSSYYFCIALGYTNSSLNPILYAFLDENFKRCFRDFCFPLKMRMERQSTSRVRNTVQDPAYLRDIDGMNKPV
T4 sequence (P51452 whole entry): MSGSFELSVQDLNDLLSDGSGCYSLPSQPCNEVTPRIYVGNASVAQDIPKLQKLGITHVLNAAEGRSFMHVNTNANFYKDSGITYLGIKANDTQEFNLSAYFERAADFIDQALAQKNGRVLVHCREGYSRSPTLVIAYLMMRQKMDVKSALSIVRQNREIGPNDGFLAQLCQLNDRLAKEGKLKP
Sequence of Mu-type opioid receptor (P35372 whole entry): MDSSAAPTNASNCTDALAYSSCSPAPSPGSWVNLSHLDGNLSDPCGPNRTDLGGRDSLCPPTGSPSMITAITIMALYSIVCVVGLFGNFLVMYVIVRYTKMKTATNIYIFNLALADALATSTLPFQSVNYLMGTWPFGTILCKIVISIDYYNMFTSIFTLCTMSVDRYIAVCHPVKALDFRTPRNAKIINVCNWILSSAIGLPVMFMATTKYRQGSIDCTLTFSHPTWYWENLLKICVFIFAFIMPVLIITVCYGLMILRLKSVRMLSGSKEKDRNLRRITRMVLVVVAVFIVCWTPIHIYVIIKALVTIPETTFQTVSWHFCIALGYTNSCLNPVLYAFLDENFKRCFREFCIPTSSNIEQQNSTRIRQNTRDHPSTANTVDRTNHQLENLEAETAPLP
T6 sequence (P11940 whole entry): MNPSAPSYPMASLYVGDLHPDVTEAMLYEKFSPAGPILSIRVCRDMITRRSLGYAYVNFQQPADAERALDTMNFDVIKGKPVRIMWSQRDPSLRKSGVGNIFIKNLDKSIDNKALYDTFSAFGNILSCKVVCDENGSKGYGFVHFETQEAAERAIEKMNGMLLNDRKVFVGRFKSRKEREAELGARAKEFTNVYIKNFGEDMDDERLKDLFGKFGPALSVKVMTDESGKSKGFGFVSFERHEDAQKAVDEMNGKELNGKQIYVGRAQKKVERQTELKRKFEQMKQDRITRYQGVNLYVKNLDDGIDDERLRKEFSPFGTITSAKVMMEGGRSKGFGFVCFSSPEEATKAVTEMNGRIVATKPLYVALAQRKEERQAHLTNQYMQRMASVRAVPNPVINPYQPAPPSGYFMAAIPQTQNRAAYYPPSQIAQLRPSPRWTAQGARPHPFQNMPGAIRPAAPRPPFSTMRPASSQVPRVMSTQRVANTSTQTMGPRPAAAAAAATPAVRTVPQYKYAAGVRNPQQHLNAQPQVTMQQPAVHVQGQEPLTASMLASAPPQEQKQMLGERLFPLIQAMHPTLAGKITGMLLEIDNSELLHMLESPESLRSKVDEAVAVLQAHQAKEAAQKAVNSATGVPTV
Sequence of Delta-type opioid receptor (P41143 whole entry): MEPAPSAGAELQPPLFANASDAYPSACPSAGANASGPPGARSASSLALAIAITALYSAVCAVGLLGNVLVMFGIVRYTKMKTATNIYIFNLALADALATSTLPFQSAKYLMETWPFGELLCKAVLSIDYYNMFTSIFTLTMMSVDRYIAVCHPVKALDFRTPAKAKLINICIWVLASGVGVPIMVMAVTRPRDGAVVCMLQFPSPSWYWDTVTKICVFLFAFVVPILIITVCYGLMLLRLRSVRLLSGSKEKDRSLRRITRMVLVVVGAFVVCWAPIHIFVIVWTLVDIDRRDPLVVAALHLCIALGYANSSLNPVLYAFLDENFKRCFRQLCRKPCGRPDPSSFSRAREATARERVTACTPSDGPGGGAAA
Sequence of G-protein coupled receptor 55 (Q9Y2T6 whole entry): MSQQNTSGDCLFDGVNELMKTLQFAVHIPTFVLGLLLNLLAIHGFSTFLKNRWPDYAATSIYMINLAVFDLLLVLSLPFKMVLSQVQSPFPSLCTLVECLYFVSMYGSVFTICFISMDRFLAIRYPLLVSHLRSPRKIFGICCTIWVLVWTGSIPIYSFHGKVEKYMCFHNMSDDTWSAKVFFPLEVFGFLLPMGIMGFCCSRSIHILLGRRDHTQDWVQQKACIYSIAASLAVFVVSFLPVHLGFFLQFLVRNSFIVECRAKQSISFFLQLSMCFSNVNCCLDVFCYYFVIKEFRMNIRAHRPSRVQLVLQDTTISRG
Sequence of Nucleotide-binding oligomerization domain-containing protein 1 (Q9Y239 whole entry, the tested form may be a part): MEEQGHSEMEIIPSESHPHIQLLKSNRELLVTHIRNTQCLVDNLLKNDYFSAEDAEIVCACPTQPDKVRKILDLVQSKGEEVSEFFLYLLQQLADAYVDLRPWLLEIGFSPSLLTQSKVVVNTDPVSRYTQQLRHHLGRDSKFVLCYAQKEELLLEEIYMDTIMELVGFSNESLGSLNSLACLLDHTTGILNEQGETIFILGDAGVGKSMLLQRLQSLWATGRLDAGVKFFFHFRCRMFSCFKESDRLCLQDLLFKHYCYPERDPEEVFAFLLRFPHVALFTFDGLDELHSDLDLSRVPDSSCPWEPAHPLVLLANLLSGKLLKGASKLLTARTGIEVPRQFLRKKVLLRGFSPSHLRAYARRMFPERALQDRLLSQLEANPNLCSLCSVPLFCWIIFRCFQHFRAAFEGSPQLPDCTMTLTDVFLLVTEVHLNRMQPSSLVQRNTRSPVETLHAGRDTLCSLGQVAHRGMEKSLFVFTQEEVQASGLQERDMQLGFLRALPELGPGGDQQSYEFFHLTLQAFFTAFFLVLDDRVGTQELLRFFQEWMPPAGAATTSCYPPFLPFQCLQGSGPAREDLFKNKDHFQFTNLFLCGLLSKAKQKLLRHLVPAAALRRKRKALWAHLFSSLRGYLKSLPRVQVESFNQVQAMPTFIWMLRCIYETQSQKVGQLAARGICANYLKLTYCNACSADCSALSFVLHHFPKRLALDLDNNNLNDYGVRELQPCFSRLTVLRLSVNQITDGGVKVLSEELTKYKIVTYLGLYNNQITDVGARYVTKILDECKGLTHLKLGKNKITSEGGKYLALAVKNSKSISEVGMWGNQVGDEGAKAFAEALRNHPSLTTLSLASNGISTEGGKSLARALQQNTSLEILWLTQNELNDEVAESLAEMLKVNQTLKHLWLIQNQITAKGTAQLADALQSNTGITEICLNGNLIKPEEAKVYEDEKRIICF
Sequence of Tyrosine-protein phosphatase non-receptor type 12 (Q05209 whole entry): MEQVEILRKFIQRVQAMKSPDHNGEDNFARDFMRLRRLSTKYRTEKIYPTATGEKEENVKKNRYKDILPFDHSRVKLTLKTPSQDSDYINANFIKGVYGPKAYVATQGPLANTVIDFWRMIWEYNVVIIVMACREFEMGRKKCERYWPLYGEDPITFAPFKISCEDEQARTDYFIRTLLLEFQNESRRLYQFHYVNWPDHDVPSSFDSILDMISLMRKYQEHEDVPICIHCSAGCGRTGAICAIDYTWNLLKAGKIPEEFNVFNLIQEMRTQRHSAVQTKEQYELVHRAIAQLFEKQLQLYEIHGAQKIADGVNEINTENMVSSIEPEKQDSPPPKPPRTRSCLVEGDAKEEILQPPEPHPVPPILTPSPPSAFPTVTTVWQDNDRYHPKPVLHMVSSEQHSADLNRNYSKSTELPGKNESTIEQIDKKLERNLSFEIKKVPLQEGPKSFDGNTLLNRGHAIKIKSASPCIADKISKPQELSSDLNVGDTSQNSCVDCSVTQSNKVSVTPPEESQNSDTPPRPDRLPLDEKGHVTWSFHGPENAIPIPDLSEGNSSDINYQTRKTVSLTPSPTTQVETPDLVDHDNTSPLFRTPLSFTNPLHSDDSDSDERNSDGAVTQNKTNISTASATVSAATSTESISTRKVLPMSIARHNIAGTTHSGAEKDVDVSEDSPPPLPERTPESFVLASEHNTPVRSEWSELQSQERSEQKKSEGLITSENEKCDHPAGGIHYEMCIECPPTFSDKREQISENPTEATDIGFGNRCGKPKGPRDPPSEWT

SMILES: O=C(Cn1c(=O)c2cccn2c2cccnc21)NCCCN1CCN(Cc2ccccc2)CC1
- IC50 [1]: 11 µM (inactive)
- IC50 [2]: > 32 µM (inactive)
- IC50 [3]: > 32 µM (inactive)
- IC50 [4]: > 20 µM (inactive)

SMILES: O=C(Nc1ccc(Cl)c([N+](=O)[O-])c1)c1ccc2ccccc2c1O
- IC50 [5]: 0.692 µM (active)
- IC50 [6]: 0.87 µM (active)
- IC50 [7]: 4.04 µM (active)

SMILES: CC(C)c1ccc(S(=O)(=O)NCc2ccc(C(=O)NCCN(Cc3ccccc3)C(C)C)cc2)cc1
- IC50 [2]: > 32 µM (inactive)
- IC50 [8]: 0.531 µM (active)
- IC50 [3]: 0.66 µM (active)
- IC50 [9]: 1.57 µM (active)

SMILES: COc1cc(/C=C2\C(=O)ON=C2c2ccccc2)cc(Cl)c1O
- EC50 [10]: > 32 µM (inactive)

SMILES: NC(=O)c1ccc(Cn2c(C(=O)c3cc(Cl)c(N)c(Cl)c3)c3ccccc3[n+]2[O-])cc1
- IC50 [11]: 10.8 µM (active)
- IC50 [12]: > 20 µM (inactive)
- IC50 [13]: > 20 µM (inactive)

SMILES: COc1ccccc1CC(=N)NOC(=O)c1ccco1
- Ki [14]: 48.4 µM (inactive)

SMILES: O=C(COc1ccccc1Cl)N[C@@H]1CCCN(Cc2ccccc2)C1
- EC50 [15]: 10 µM (active)

SMILES: CCOC(=O)c1ccc2c(c1)N(C)C(=O)c1ccccc1S2
- IC50 [16]: 16.6 µM (inactive)
- IC50 [17]: 22.2 µM (active)
- IC50 [18]: > 100 µM (inactive)
- IC50 [19]: 8.67 µM (active)
- IC50 [20]: > 99 µM (inactive)
- IC50 [21]: 11.7 µM (active)
- IC50 [22]: 1.55 µM (active)
- IC50 [23]: 12.9 µM (inactive)
- IC50 [24]: > 100 µM (inactive)
- IC50 [25]: 8.14 µM (active)

SMILES: Cc1cc(OCC(=O)O)ccc1[S+](C)[O-] (stereo unspecified)
- IC50 [26]: > 100 µM (inactive)
- IC50 [27]: > 99 µM (inactive)
- IC50 [28]: > 100 µM (inactive)
- IC50 [29]: > 100 µM (inactive)
- IC50 [30]: > 100 µM (inactive)
- IC50 [31]: > 100 µM (inactive)
- IC50 [32]: > 100 µM (inactive)
- IC50 [33]: > 99 µM (inactive)

SMILES: CCCCC(=O)NNC=C1C(=O)N(CC)C(=S)N(CC)C1=O
- IC50 [34]: > 66.6 µM (inactive)

From ChEMBL document CHEMBL1201862, “PubChem BioAssay data set” (2004)
